Type in all cases: cell-based
Series [1] addresses T1, human RXRβ ligand binding domain (Gal4 hybrid receptor) (Homo sapiens, UniProt P28702).
T1 construct: expressed in transfected cells; host or cells: HEK293T
T1 sequence (P28702 296-529 limits assumed): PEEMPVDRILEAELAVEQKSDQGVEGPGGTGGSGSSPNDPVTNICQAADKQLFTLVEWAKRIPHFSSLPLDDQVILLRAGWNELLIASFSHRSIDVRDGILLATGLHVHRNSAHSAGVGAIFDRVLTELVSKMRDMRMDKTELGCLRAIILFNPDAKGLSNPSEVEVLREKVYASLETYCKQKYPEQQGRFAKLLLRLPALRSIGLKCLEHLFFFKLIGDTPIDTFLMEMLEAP
Kind of series: Gal4 hybrid reporter gene assay RXRβ. To be noted: HEK293T cells, n ≥ 4, read-out: RXRβ EC50 ± SEM. The method, then:
The 20 top-ranked synthetic compounds were selected and tested in vitro for their modulatory activity on RXR (Supplementary Table 1). Compounds were tested in specific hybrid reporter gene assays for RXRα, RXRβ and RXRγ modulation[39]–[41]. These assays rely on a constitutively expressed hybrid receptor composed of the respective human RXR ligand binding domain and the DNA binding domain of the Gal4 receptor from yeast. A Gal4 responsive firefly luciferase was used as reporter gene and constitutively expressed renilla luciferase served as internal control for transfection efficiency and test compound toxicity. All selected compounds were tested at 50 µM concentration on RXRα and for active compounds (Supplementary Fig. 1), dose response curves were recorded on all three RXR subtypes.
(§1) The Gal4 hybrid reporter gene assays were conducted as reported previously[39]–[41]. pFA-CMV-based constructs comprising the ligand binding domain of the human nuclear receptor in question were used as expression plasmids for the chimera receptors. pFR-Luc (Stratagene) served as reporter plasmid and pRL-SV40 (Promega) for normalization of transfection efficiency and cell growth. The assays were conducted in 96-well format in HEK293T cells that were cultured as described previously[39]–[41]. Transient transfection was carried out using Lipofectamine LTX reagent (Invitrogen) according to the manufacturer’s protocol. After transfection and incubation with test compounds (12–14 h), cells were assayed for luciferase activity using Dual-Glo™ Luciferase Assay System (Promega) according to the manufacturer’s protocol. Luminescence was measured with an Infinite M200 luminometer (Tecan Deutschland GmbH). All hybrid assays were validated with reference agonists (PPARα: GW7647; PPARγ: pioglitazone; PPARδ: L165,041; LXRα/β: T0901317; FXR: GW4064; RXRs: bexarotene; RARs: tretinoin; VDR: calcitriol; CAR: CITCO; PXR: SR12813) which yielded EC50 values in agreement with literature. The assays were conducted in duplicates with at least two independent repeats and for active compounds repeated without hybrid receptor coding DNA for every test compound at the highest tested concentration to exclude unspecific effects.
Supplementary Figure 2. Dose-response curves for RXRα activation. Compounds were tested in specific hybrid reporter gene assays for RXRα, RXRβ and RXRγ modulation.^1–3 These assays rely on a constitutively expressed hybrid receptor composed of the respective human RXR ligand binding domain and the DNA binding domain of the Gal4 receptor from yeast. A Gal4 responsive firefly luciferase was used as reporter gene and constitutively expressed renilla luciferase served as internal control for transfection efficiency and test compound toxicity. […]
Background: In a reporter assay the amount or activity of a reporter protein is the signal.

In series [2] the target is T2, PPARα (Homo sapiens, UniProt Q07869).
T2 construct: expressed in transfected cells; host or cells: HEK293T
T2 sequence (Q07869 239-466 limits assumed): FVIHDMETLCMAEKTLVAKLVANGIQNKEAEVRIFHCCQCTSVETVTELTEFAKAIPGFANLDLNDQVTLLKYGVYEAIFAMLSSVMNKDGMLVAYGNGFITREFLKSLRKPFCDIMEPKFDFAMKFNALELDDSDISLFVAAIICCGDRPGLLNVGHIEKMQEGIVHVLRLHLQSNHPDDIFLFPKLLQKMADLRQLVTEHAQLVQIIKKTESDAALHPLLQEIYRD
Kind of series: Gal4 hybrid reporter gene assay PPARα (selectivity profiling). The method, then:
(§2) Moreover, 7 was characterized for its ability to modulate RXR target gene expression under more physiological conditions. Hepatoma cells (HepG2) were incubated with 7 (30 µM) or reference RXR agonist bexarotene (9, 1 µM) for eight hours and mRNA expression of RXR regulated genes ATP-binding cassette transporter A1 (ABCA1), angiopoietin like protein 4 (ANGPTL4) and apolipoprotein E (ApoE) was analysed by quantitative real-time PCR.
as §1, with “All hybrid assays were validated with reference agonists (PPARα: GW7647; PPARγ: pioglitazone; PPARδ: L165,041; LXRα/β: T0901317; FXR: GW4064; RXRs: bexarotene; RARs: tretinoin; VDR: calcitriol; CAR: CITCO; PXR: SR12813) which yielded EC50 values in agreement with literature. The assays were conducted in duplicates with at least two independent repeats and for active compounds repeated without hybrid receptor coding DNA for every test compound at the highest tested concentration to exclude unspecific effects.” left out

Series [3] addresses T3, LXRβ (Homo sapiens, UniProt P55055).
T3 construct: expressed in transfected cells; host or cells: HEK293T
T3 sequence (P55055 222-460 limits assumed): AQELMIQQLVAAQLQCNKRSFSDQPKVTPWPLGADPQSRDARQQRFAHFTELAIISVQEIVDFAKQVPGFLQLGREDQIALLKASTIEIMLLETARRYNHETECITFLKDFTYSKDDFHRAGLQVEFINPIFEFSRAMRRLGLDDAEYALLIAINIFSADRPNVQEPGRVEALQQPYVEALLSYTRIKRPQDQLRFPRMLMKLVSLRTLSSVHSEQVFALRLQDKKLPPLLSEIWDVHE
The experiment in a line: Gal4 hybrid reporter gene assay LXRβ (selectivity profiling). Here is the method: as §2
as §1, with “All hybrid assays were validated with reference agonists (PPARα: GW7647; PPARγ: pioglitazone; PPARδ: L165,041; LXRα/β: T0901317; FXR: GW4064; RXRs: bexarotene; RARs: tretinoin; VDR: calcitriol; CAR: CITCO; PXR: SR12813) which yielded EC50 values in agreement with literature. The assays were conducted in duplicates with at least two independent repeats and for active compounds repeated without hybrid receptor coding DNA for every test compound at the highest tested concentration to exclude unspecific effects.” left out

Series [4] has as its target T4, RARγ (Homo sapiens, UniProt P13631).
T4 construct: expressed in transfected cells; host or cells: HEK293T
T4 sequence (P13631 185-419 limits assumed): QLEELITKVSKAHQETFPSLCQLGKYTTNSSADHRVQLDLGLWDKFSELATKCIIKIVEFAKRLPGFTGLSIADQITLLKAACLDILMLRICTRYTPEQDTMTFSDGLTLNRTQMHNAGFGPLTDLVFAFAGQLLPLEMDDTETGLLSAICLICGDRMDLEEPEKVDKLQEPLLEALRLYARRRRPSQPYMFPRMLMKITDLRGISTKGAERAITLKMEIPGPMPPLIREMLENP
Kind of series: Gal4 hybrid reporter gene assay RARγ (selectivity profiling). The method, then:
as §2
as §1, with “All hybrid assays were validated with reference agonists (PPARα: GW7647; PPARγ: pioglitazone; PPARδ: L165,041; LXRα/β: T0901317; FXR: GW4064; RXRs: bexarotene; RARs: tretinoin; VDR: calcitriol; CAR: CITCO; PXR: SR12813) which yielded EC50 values in agreement with literature. The assays were conducted in duplicates with at least two independent repeats and for active compounds repeated without hybrid receptor coding DNA for every test compound at the highest tested concentration to exclude unspecific effects.” left out

The target in series [5] is T5, constitutive androstane receptor [CAR] (Homo sapiens, UniProt Q14994).
T5 construct: expressed in transfected cells; host or cells: HEK293T
T5 sequence (Q14994 109-352 limits assumed): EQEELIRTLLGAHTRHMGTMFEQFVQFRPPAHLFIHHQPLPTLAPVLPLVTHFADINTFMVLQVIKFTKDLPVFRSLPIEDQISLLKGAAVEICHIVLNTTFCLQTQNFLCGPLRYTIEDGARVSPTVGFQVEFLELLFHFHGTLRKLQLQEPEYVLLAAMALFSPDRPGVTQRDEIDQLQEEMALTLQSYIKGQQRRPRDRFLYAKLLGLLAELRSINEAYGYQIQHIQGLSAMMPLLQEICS
Kind of series: Gal4 hybrid reporter gene assay CAR (selectivity profiling). The method, then:
as §2
as §1, with “All hybrid assays were validated with reference agonists (PPARα: GW7647; PPARγ: pioglitazone; PPARδ: L165,041; LXRα/β: T0901317; FXR: GW4064; RXRs: bexarotene; RARs: tretinoin; VDR: calcitriol; CAR: CITCO; PXR: SR12813) which yielded EC50 values in agreement with literature. The assays were conducted in duplicates with at least two independent repeats and for active compounds repeated without hybrid receptor coding DNA for every test compound at the highest tested concentration to exclude unspecific effects.” left out

Series [6] deals with HepG2 cells. The experiment in a line: Toxicity assay (WST-1, water-soluble tetrazolium assay). To be noted: WST-1, HepG2 cells, 48 h. Here is the method:
WST-1 assay (Roche Diagnostics International AG, Rotkreuz, Schweiz) was performed according to manufacturer’s protocol in HepG2 cells. Cells were incubated with the test compounds (final concentrations: 1 µM, 10 µM, 30 µM, 50 µM and 100 µM) in DMEM/1% DMSO, and DMEM/1% DMSO as negative control. After 48 h, WST reagent (Roche Diagnostics International AG) was added to each well according to manufacturer’s instructions. After 45 min incubation, absorption (450 nm/reference: 620 nm) was determined with a Tecan Infinite M200 (Tecan Deutschland GmbH). Each experiment was set up in duplicates and repeated in four independent experiments. Results are expressed as mean ± SEM% of DMSO (0.1%) control.
A general note: Tetrazolium dyes change colour on reduction, which living cells bring about.

A value given as a limit tells only on which side of the number the result lay.

Take `CC(C)(C)c1cc(/C=N/NC(=O)c2ccc(N)cc2)cc(C(C)(C)C)c1` [Compound 7]: in series [1], the EC50 – broadly, the midpoint of the concentration-response curve – was found to be 25.1 ± 0.1 µM. In addition, the “activity on PPARα” value in series [2] is reported as “no activity”. Besides, the “activity on LXRβ” value in series [3] is “no activity”. The “activity on RARγ” value in series [4] is listed as “no activity”. The “activity on CAR” value in series [5] was “no activity”. Moreover, the “concentration up to which no cytotoxic effect was seen” value in series [6] is listed as more than 100 µM.

Source of the values: article PMC6220272, “Scaffold-Hopping from Synthetic Drugs by Holistic Molecular Representation” (Scientific Reports, 2018).
